Reference: the supplement of paper PMC10307832

Assays:
Experiment in all cases: relative viability (nuclei count vs DMSO), 5 days (fraction); higher = more cells survive
A549 = test system: A549
In short: (§1)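 Lung cancer cell lines in 1536-well plates got either a single drug or a fixed anchor-drug dose together with five library-drug doses (not always all listed) in √10 steps, by pin tool, on the day after seeding. Nuclei were counted after 5 days, and relative viability is the treated-to-vehicle ratio of nuclei counts. Values are medians of duplicate plates.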

COR-L 105 = test system: COR-L 105
In short: as §1

Calu-6 = test system: Calu-6
In short: as §1

EBC-1 = test system: EBC-1
In short: as §1

IA-LM = test system: IA-LM
In short: as §1

LCLC-103H = test system: LCLC-103H
In short: as §1

LK-2 = test system: LK-2
In short: as §1

NCI-H1299 = test system: NCI-H1299
In short: as §1

NCI-H1355 = test system: NCI-H1355
In short: as §1

NCI-H1703 = test system: NCI-H1703
In short: as §1

NCI-H520 = test system: NCI-H520
In short: as §1

For `O=c1cc(-c2cccc3c2Sc2ccccc2S3)oc(N2CCOCC2)c1` + C[C@@H](Oc1cc(-c2cnn(C3CCNCC3)c2)cnc1N)c1c(Cl)ccc(F)c1Cl [Crizotinib] (partner 1 µM), the relative viability (A549; first compound 0.08 µM) was 0.706, the relative viability (A549; first compound 0.253 µM) was 1.11 and the relative viability (A549; first compound 0.8 µM) was 0.765. For the same compound, the relative viability (A549; first compound 2.53 µM) was 0.691, the relative viability (A549; first compound 8 µM) was 0.578 and the relative viability (COR-L 105; first compound 0.08 µM) was 0.833. For the same compound, the relative viability (COR-L 105; first compound 0.253 µM) was 0.706, the relative viability (COR-L 105; first compound 0.8 µM) was 0.752 and the relative viability (COR-L 105; first compound 2.53 µM) was 0.798. For the same compound, the relative viability (COR-L 105; first compound 8 µM) was 1.07, the relative viability (Calu-6; first compound 0.08 µM) was 0.725 and the relative viability (Calu-6; first compound 0.253 µM) was 0.839. For the same compound, the relative viability (Calu-6; first compound 0.8 µM) was 0.969, the relative viability (Calu-6; first compound 2.53 µM) was 0.692 and the relative viability (Calu-6; first compound 8 µM) was 0.733. The relative viability (EBC-1; first compound 0.08 µM) was 0.212, the relative viability (EBC-1; first compound 0.253 µM) was 0.175 and the relative viability (EBC-1; first compound 0.8 µM) was 0.156. It also gave a relative viability (EBC-1; first compound 2.53 µM) of 0.182, a relative viability (EBC-1; first compound 8 µM) of 0.26 and a relative viability (IA-LM; first compound 0.08 µM) of 0.899. It also gave a relative viability (IA-LM; first compound 0.253 µM) of 0.971, a relative viability (IA-LM; first compound 0.8 µM) of 0.847 and a relative viability (IA-LM; first compound 8 µM) of 0.9. For the same compound, the relative viability (LCLC-103H; first compound 0.08 µM) was 1.06, the relative viability (LCLC-103H; first compound 0.253 µM) was 1.07 and the relative viability (LCLC-103H; first compound 0.8 µM) was 1.06. The relative viability (LCLC-103H; first compound 2.53 µM) was 1.05, the relative viability (LCLC-103H; first compound 8 µM) was 1.05 and the relative viability (LK-2; first compound 0.08 µM) was 0.196. For the same compound, the relative viability (LK-2; first compound 0.253 µM) was 0.224, the relative viability (LK-2; first compound 0.8 µM) was 0.194 and the relative viability (LK-2; first compound 2.53 µM) was 0.231. The relative viability (LK-2; first compound 8 µM) was 0.208, the relative viability (NCI-H1299; first compound 0.08 µM) was 0.999 and the relative viability (NCI-H1299; first compound 0.253 µM) was 0.977. For the same compound, the relative viability (NCI-H1299; first compound 0.8 µM) was 1, the relative viability (NCI-H1299; first compound 2.53 µM) was 0.956 and the relative viability (NCI-H1299; first compound 8 µM) was 0.835. The relative viability (NCI-H1355; first compound 0.08 µM) was 1.08, the relative viability (NCI-H1355; first compound 0.253 µM) was 1.16 and the relative viability (NCI-H1355; first compound 0.8 µM) was 1.04. For the same compound, the relative viability (NCI-H1355; first compound 2.53 µM) was 1.06, the relative viability (NCI-H1355; first compound 8 µM) was 0.98 and the relative viability (NCI-H1703; first compound 0.08 µM) was 0.463. The relative viability (NCI-H1703; first compound 0.253 µM) was 0.519, the relative viability (NCI-H1703; first compound 0.8 µM) was 0.99 and the relative viability (NCI-H1703; first compound 2.53 µM) was 1.01. It also gave a relative viability (NCI-H1703; first compound 8 µM) of 0.777, a relative viability (NCI-H520; first compound 0.08 µM) of 0.447 and a relative viability (NCI-H520; first compound 0.253 µM) of 0.695. For the same compound, the relative viability (NCI-H520; first compound 0.8 µM) was 0.976, the relative viability (NCI-H520; first compound 2.53 µM) was 0.821 and the relative viability (NCI-H520; first compound 8 µM) was 0.821.
`CCN(CC)CCCCNc1ncc2cc(-c3cc(OC)cc(OC)c3)c(NC(=O)NC(C)(C)C)nc2n1` + C[C@]1(O)C[C@@H](c2nc(-c3ccc4ccc(-c5ccccc5)nc4c3)c3c(N)nccn32)C1 [Linsitinib] (partner 1 µM) was tested, and the relative viability (A549; first compound 0.01 µM) was 0.623, the relative viability (A549; first compound 0.03162 µM) was 0.626 and the relative viability (A549; first compound 0.1 µM) was 0.563. The relative viability (A549; first compound 0.3162 µM) was 0.636, the relative viability (A549; first compound 1 µM) was 0.595 and the relative viability (COR-L 105; first compound 0.01 µM) was 1.1. It also gave a relative viability (COR-L 105; first compound 0.03162 µM) of 0.794, a relative viability (COR-L 105; first compound 0.1 µM) of 1.02 and a relative viability (COR-L 105; first compound 0.3162 µM) of 0.963. For the same compound, the relative viability (COR-L 105; first compound 1 µM) was 0.868, the relative viability (Calu-6; first compound 0.03162 µM) was 0.946 and the relative viability (Calu-6; first compound 0.1 µM) was 0.969. The relative viability (Calu-6; first compound 0.3162 µM) was 0.898, the relative viability (Calu-6; first compound 1 µM) was 1.02 and the relative viability (EBC-1; first compound 0.01 µM) was 0.885. The relative viability (EBC-1; first compound 0.03162 µM) was 1.04, the relative viability (EBC-1; first compound 0.1 µM) was 0.994 and the relative viability (EBC-1; first compound 0.3162 µM) was 1.06. For the same compound, the relative viability (EBC-1; first compound 1 µM) was 0.879, the relative viability (IA-LM; first compound 0.01 µM) was 0.757 and the relative viability (IA-LM; first compound 0.03162 µM) was 0.748. For the same compound, the relative viability (IA-LM; first compound 0.1 µM) was 0.621, the relative viability (IA-LM; first compound 0.3162 µM) was 0.78 and the relative viability (IA-LM; first compound 1 µM) was 0.506. The relative viability (LCLC-103H; first compound 0.01 µM) was 1.17, the relative viability (LCLC-103H; first compound 0.03162 µM) was 1.11 and the relative viability (LCLC-103H; first compound 0.1 µM) was 1.2. For the same compound, the relative viability (LCLC-103H; first compound 0.3162 µM) was 1.09, the relative viability (LCLC-103H; first compound 1 µM) was 1.15 and the relative viability (LK-2; first compound 0.01 µM) was 0.536. The relative viability (LK-2; first compound 0.03162 µM) was 0.339, the relative viability (LK-2; first compound 0.1 µM) was 0.401 and the relative viability (LK-2; first compound 0.3162 µM) was 0.356. For the same compound, the relative viability (LK-2; first compound 1 µM) was 0.17, the relative viability (NCI-H1299; first compound 0.01 µM) was 1.01 and the relative viability (NCI-H1299; first compound 0.03162 µM) was 1.01. It also gave a relative viability (NCI-H1299; first compound 0.1 µM) of 0.986, a relative viability (NCI-H1299; first compound 0.3162 µM) of 1.09 and a relative viability (NCI-H1299; first compound 1 µM) of 0.944. It also gave a relative viability (NCI-H1355; first compound 0.01 µM) of 0.861, a relative viability (NCI-H1355; first compound 0.03162 µM) of 0.887 and a relative viability (NCI-H1355; first compound 0.1 µM) of 0.873. The relative viability (NCI-H1355; first compound 0.3162 µM) was 0.898, the relative viability (NCI-H1355; first compound 1 µM) was 0.794 and the relative viability (NCI-H1703; first compound 0.01 µM) was 1.02. It also gave a relative viability (NCI-H1703; first compound 0.03162 µM) of 0.63, a relative viability (NCI-H1703; first compound 0.1 µM) of 0.792 and a relative viability (NCI-H1703; first compound 0.3162 µM) of 0.959. It also gave a relative viability (NCI-H1703; first compound 1 µM) of 0.967, a relative viability (NCI-H520; first compound 0.01 µM) of 0.998 and a relative viability (NCI-H520; first compound 0.03162 µM) of 1.02. It also gave a relative viability (NCI-H520; first compound 0.1 µM) of 0.948, a relative viability (NCI-H520; first compound 0.3162 µM) of 0.912 and a relative viability (NCI-H520; first compound 1 µM) of 0.332.
